From US9199946B2, “Pyrimidinone carboxamide inhibitors of endothelial lipase” (BRISTOL-MYERS SQUIBB COMPANY, priority 2012, dated 2015) come the findings set out here.

Read-outs that look alike come from different tables or passages of the source.

The assay concerns the target T1, Endothelial lipase (EL) (Homo sapiens, UniProt Q9Y5X9).
T1 construct: HT-1080 cells, which were transformed by RAGE technology (Athersys) to overexpress endogenous EL; endogenous in cells; conditioned medium used as the enzyme source
T1 sequence (Q9Y5X9 21-500): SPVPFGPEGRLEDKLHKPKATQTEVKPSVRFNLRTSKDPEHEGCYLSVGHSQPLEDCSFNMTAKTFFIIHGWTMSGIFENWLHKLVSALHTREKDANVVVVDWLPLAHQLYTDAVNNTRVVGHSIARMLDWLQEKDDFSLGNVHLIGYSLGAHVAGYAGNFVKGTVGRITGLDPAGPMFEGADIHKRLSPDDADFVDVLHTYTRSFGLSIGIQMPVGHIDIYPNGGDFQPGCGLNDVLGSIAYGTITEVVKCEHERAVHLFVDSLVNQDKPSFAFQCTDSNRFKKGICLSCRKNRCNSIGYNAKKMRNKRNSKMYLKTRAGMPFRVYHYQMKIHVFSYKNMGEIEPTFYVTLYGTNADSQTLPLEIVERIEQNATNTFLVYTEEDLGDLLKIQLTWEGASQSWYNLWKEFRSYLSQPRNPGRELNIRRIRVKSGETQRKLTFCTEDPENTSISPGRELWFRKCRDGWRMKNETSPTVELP
As to the kind of experiment: Endothelial lipase (EL) enzymatic assay with fluorescent substrate A10070 in DMPG vesicles. It counts as biochemical. In outline:
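The enzyme source was conditioned medium from HT-1080 cells engineered to overexpress endogenous EL. It was preincubated with compound for 20 min at 37 °C in 50 mM HEPES pH 8.0, 50 mM NaCl, 1 mM CaCl2. Reactions started with DMPG vesicles carrying FRET substrate A10070 (mole fraction 0.05). The rate was taken from the linear slope of fluorescence (ex 488/em 530 nm) over 10 min.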

Setting [1] is: range observed in the EL assay, read-out: EL IC50 values.
[2] abbreviates: conditioned media from HT-1080 cells overexpressing endogenous EL, 20 min preincubation at 37° C., read-out: EL IC50.

As to `O=C(N[C@@H]1CC[C@@H](C(=O)NCc2nc3ccccc3s2)C1)c1[nH]c(=O)[nH]c(=O)c1O` [Example 296, N-((1R,3R)-3-(benzo[d]thiazol-2-ylmethylcarbamoyl)cyclopentyl)-5-hydroxy-2,6-dioxo-1,2,3,6-tetrahydropyrimidine-4-carboxamide], under setting [1], the IC50 is ≤ 10 µM.
Still for that read-out and setting: with `COc1ccc([C@@H]2CC[C@H](NC(=O)c3[nH]c(=O)[nH]c(=O)c3N)C2)cn1` [Example 79, 5-amino-N-((1S,3R)-3-(6-methoxypyridin-3-yl)cyclopentyl)-2,6-dioxo-1,2,3,6-tetrahydropyrimidine-4-carboxamide] the figure was ≤ 10 µM.
For `O=C(Nc1ccccc1)N[C@H]1CC[C@@H](NC(=O)c2[nH]c(=O)[nH]c(=O)c2O)CC1` [Example 280, 5-hydroxy-2,6-dioxo-N-(cis-4-(3-phenylureido)cyclohexyl)-1,2,3,6-tetrahydropyrimidine-4-carboxamide], the IC50 was 3.14 µM under setting [2] and ≤ 10 µM under setting [1].
For the molecule `Nc1c(C(=O)NC2CCN(C(=O)Nc3ccc(C(F)(F)F)cc3)c3ccccc32)[nH]c(=O)[nH]c1=O` (stereo not shown) [Example 26, 4-(5-amino-2,6-dioxo-1,2,3,6-tetrahydropyrimidine-4-carboxamido)-N-(4-(trifluoromethyl)phenyl)-3,4-dihydroquinoline-1(2H)-carboxamide], the concentration for half-maximal inhibition (IC50) reads like this: under setting [2], 9.86 µM; under setting [1], ≤ 10 µM.
Consider `O=C(N[C@@H]1CC[C@@H](C(=O)N[C@H]2CCCc3ccccc32)C1)c1[nH]c(=O)[nH]c(=O)c1O` [Example 298, 5-hydroxy-2,6-dioxo-N-((1R,3R)-3-((S)-1,2,3,4-tetrahydronaphthalen-1-ylcarbamoyl)cyclopentyl)-1,2,3,6-tetrahydropyrimidine-4-carboxamide], for which the IC50 under setting [1] was ≤ 10 µM.
Still for that read-out and setting: with `Nc1c(C(=O)N[C@H]2CCc3c(Br)cccc32)[nH]c(=O)[nH]c1=O` [Example 60, (S)-5-amino-N-(4-bromo-2,3-dihydro-1H-inden-1-yl)-2,6-dioxo-1,2,3,6-tetrahydropyrimidine-4-carboxamide] the figure was ≤ 10 µM; with `O=C(N[C@H]1CC[C@@H](c2ccccc2)CC1)c1[nH]c(=O)[nH]c(=O)c1NC1CCCc2ccccc21` (stereo partly drawn) [Example 224, 2,6-dioxo-N-(cis-4-phenylcyclohexyl)-5-(1,2,3,4-tetrahydronaphthalen-1-ylamino)-1,2,3,6-tetrahydropyrimidine-4-carboxamide], ≤ 10 µM.
On to `COc1ccc2c(c1)C(NC(=O)c1[nH]c(=O)[nH]c(=O)c1N)CC2` (single isomer, unassigned) [Example 73, 5-amino-N-(6-methoxy-2,3-dihydro-1H-inden-1-yl)-2,6-dioxo-1,2,3,6-tetrahydropyrimidine-4-carboxamide], for which the IC50 runs as follows: under setting [2], 0.468 µM; under setting [1], ≤ 10 µM.
As to `Nc1c(C(=O)NC2CCC(c3ccc(OCc4ccccc4)cc3)C2)[nH]c(=O)[nH]c1=O` (stereo not shown) [Example 106, 5-amino-N-(3-(4-(benzyloxy)phenyl)cyclopentyl)-2,6-dioxo-1,2,3,6-tetrahydropyrimidine-4-carboxamide], under setting [1], the concentration for half-maximal inhibition (IC50) was ≤ 10 µM.
The same measure, in the same setting: next, `Nc1c(C(=O)N[C@@H]2CCCc3c(CCc4ccccc4)cccc32)[nH]c(=O)[nH]c1=O` [Example 111, (R)-5-amino-2,6-dioxo-N-(5-phenethyl-1,2,3,4-tetrahydronaphthalen-1-yl)-1,2,3,6-tetrahydropyrimidine-4-carboxamide]: ≤ 10 µM.
With `COc1cccc2c1CCC[C@H]2NC(=O)c1[nH]c(=O)[nH]c(=O)c1N` [Example 103, (R)-5-amino-N-(5-methoxy-1,2,3,4-tetrahydronaphthalen-1-yl)-2,6-dioxo-1,2,3,6-tetrahydropyrimidine-4-carboxamide], the IC50 under setting [1] was ≤ 10 µM.
As for `O=C(N[C@H]1CC[C@@H](c2ccccc2)CC1)c1[nH]c(=O)n(CC(F)(F)F)c(=O)c1O` [Example 243, 5-hydroxy-2,6-dioxo-N-(cis-4-phenylcyclohexyl)-1-(2,2,2-trifluoroethyl)-1,2,3,6-tetrahydropyrimidine-4-carboxamide], the IC50 is, setting by setting: under setting [2], 0.967 µM; under setting [1], ≤ 10 µM.
In the case of `CC(C)(C)COc1ccc(C2CCC(NC(=O)c3[nH]c(=O)[nH]c(=O)c3O)C2)cc1` (stereo not shown) [Example 293, 5-hydroxy-N-(3-(4-(neopentyloxy)phenyl)cyclopentyl)-2,6-dioxo-1,2,3,6-tetrahydropyrimidine-4-carboxamide], under setting [1], the half-maximal inhibitory concentration (IC50) was ≤ 10 µM.
Consider `O=C(N[C@H]1CC[C@@H](NC(=O)c2[nH]c(=O)[nH]c(=O)c2O)CC1)c1ccccc1` [Example 260, N-((1s,4s)-4-benzamidocyclohexyl)-5-hydroxy-2,6-dioxo-1,2,3,6-tetrahydropyrimidine-4-carboxamide], for which the concentration for half-maximal inhibition (IC50) under setting [1] was ≤ 10 µM.
Turning to `Nc1c(C(=O)N[C@@H]2CC[C@@H](C(=O)N[C@H]3CC[C@@H](c4ccccc4)CC3)C2)[nH]c(=O)[nH]c1=O` [Example 147, 5-amino-2,6-dioxo-N-((1R,3R)-3-(cis-4-phenylcyclohexylcarbamoyl)cyclopentyl)-1,2,3,6-tetrahydropyrimidine-4-carboxamide], the IC50 under setting [1] was ≤ 10 µM.
Still for that read-out and setting: with `O=C(N[C@H]1CC[C@@H](c2ccccc2)CC1)c1[nH]c(=O)[nH]c(=O)c1NCC(F)(F)F` [Example 228, 2,6-dioxo-N-(cis-4-phenylcyclohexyl)-5-(2,2,2-trifluoroethylamino)-1,2,3,6-tetrahydropyrimidine-4-carboxamide] the figure was ≤ 10 µM; with `NS(=O)(=O)c1ccc(CCNc2c(C(=O)N[C@H]3CC[C@@H](c4ccccc4)CC3)[nH]c(=O)[nH]c2=O)cc1` [Example 226, 2,6-dioxo-N-(cis-4-phenylcyclohexyl)-5-(4-sulfamoylphenethylamino)-1,2,3,6-tetrahydropyrimidine-4-carboxamide], ≤ 10 µM; with `O=C(N[C@@H]1CCCc2c(OCC(F)(F)F)cccc21)c1[nH]c(=O)[nH]c(=O)c1O` [Example 255, (R)-5-hydroxy-2,6-dioxo-N-(5-(2,2,2-trifluoroethoxy)-1,2,3,4-tetrahydronaphthalen-1-yl)-1,2,3,6-tetrahydropyrimidine-4-carboxamide], ≤ 10 µM.
Still for that read-out and setting: next, `COc1ccc2c(c1)C(NC(=O)c1[nH]c(=O)[nH]c(=O)c1N)CCC2` (stereo not shown) [Example 39, 5-amino-N-(7-methoxy-1,2,3,4-tetrahydronaphthalen-1-yl)-2,6-dioxo-1,2,3,6-tetrahydropyrimidine-4-carboxamide]: ≤ 10 µM.
Still for that read-out and setting: with `CCOc1cccc(C(=O)N[C@H]2CC[C@@H](NC(=O)c3[nH]c(=O)[nH]c(=O)c3N)CC2)c1` [Example 121, 5-amino-N-(cis-4-(3-ethoxybenzamido)cyclohexyl)-2,6-dioxo-1,2,3,6-tetrahydropyrimidine-4-carboxamide] the figure was ≤ 10 µM; with `O=C(NC1CCC(c2cnn(Cc3ccccc3)c2)C1)c1[nH]c(=O)[nH]c(=O)c1O` (stereo not shown) [Example 283, N-(3-(1-benzyl-1H-pyrazol-4-yl)cyclopentyl)-5-hydroxy-2,6-dioxo-1,2,3,6-tetrahydropyrimidine-4-carboxamide], ≤ 10 µM.
With `Nc1c(C(=O)N[C@@H]2CCc3ccccc32)[nH]c(=O)[nH]c1=O` [Example 9, (R)-5-amino-N-(2,3-dihydro-1H-inden-1-yl)-2,6-dioxo-1,2,3,6-tetrahydropyrimidine-4-carboxamide], the IC50 under setting [1] was ≤ 10 µM.
Same read-out and setting: with `Nc1c(C(=O)N[C@@H]2CCCc3c(NCc4ccccc4)cccc32)[nH]c(=O)[nH]c1=O` [Example 123, (R)-5-amino-N-(5-(benzylamino)-1,2,3,4-tetrahydronaphthalen-1-yl)-2,6-dioxo-1,2,3,6-tetrahydropyrimidine-4-carboxamide] the figure was ≤ 10 µM; with `O=C(N[C@H]1CC[C@@H](c2ccccc2)CC1)c1[nH]c(=O)[nH]c(=O)c1NCc1cccc(C(F)(F)F)c1` [Example 222, 2,6-dioxo-N-(cis-4-phenylcyclohexyl)-5-(3-(trifluoromethyl)benzylamino)-1,2,3,6-tetrahydropyrimidine-4-carboxamide], ≤ 10 µM.
Same read-out and setting: next, `O=C(Nc1ccc2c(c1)CCC[C@H]2NC(=O)c1[nH]c(=O)[nH]c(=O)c1O)c1ccccc1` [Example 288, (R)-N-(6-benzamido-1,2,3,4-tetrahydronaphthalen-1-yl)-5-hydroxy-2,6-dioxo-1,2,3,6-tetrahydropyrimidine-4-carboxamide]: ≤ 10 µM; `COc1ccc2c(c1)CCCC2NC(=O)c1[nH]c(=O)[nH]c(=O)c1N` (stereo not shown) [Example 31, 5-amino-N-(6-methoxy-1,2,3,4-tetrahydronaphthalen-1-yl)-2,6-dioxo-1,2,3,6-tetrahydropyrimidine-4-carboxamide]: ≤ 10 µM; `O=C(NC1CCCc2c(NS(=O)(=O)c3ccccc3)cccc21)c1[nH]c(=O)[nH]c(=O)c1O` (stereo not shown) [Example 287, 5-hydroxy-2,6-dioxo-N-(5-(phenylsulfonamido)-1,2,3,4-tetrahydronaphthalen-1-yl)-1,2,3,6-tetrahydropyrimidine-4-carboxamide]: ≤ 10 µM.

The IC50 is the midpoint of a concentration-inhibition curve.
